# Experiments:
# MC1-R [1] = target: T1, MC1-R (Mus musculus, UniProt Q01727); assay: Competitive inhibition assay using [I^125]-NDP-α-MSH, B-16 mouse melanoma cell membranes; assay type: binding; conditions: for inhibition at 1 µM: 1 μM test compound, read-out: Inhibition at 1 μM (NDP-α-MSH) In Normal System, MC1-R; for Ki: read-out: Ki (nM) (NDP-α-MSH) In Normal System, MC1-R
# T1 construct: B-16 mouse melanoma cells (containing MC1-R); endogenous in cells
# Summary of the method: (§1)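 Tracer was 0.4 nM for MC3-R and MC5-R, 0.2 nM for MC4-R and 0.1 nM for MC1-R. Bound radioactivity was gamma-counted after filtration; values are triplicate means, with results below 0% reported as 0%.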
# MC1-R [2] = target: T1, MC1-R; assay: cAMP functional activity assay in B-16 mouse melanoma cells; assay type: cell-based; conditions: 1 μM concentration where stated
# Procedure: (§2) General method for EC50 determination in functional activity assay. […] Data analysis and EC50 values were determined using nonlinear regression analysis with Prism Graph-Pad software.
# (§3) Functional status. The agonist/antagonist status with respect to MC1-R, MC-3R, MC4-R and MC5-R of certain compounds of the invention was determined. Antagonistic activity was determined by measuring the inhibition of α-MSH-induced or NDP-α-MSH-induced cAMP levels following exposure to graded doses of compounds as in the preceding descriptions.
# [3] = Penile erection induction in male rats; assay type: in vivo; conditions: rat
# Summary of the method: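 Male Sprague-Dawley rats (200-250 g), groups of 4-8, dosed IV or ICV at various doses and observed individually for penile erections. Only statistically relevant increases over vehicle-control mean PEs count as induction; IV responses below 1.0 PEs/rat treated as equivocal, some retested ICV.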
# MC3-R [4] = target: T2, MC3-R (Homo sapiens, UniProt P41968); assay: Competitive inhibition assay using [I^125]-NDP-α-MSH, hMC3-R membranes; assay type: binding; parameters: expressed in transfected cells; conditions: 1 μM test compound; read-out: Inhibition at 1 μM (NDP-α-MSH) In Normal System, MC3-R
# Summary of the method: as §1
# MC5-R [5] = target: T3, MC5-R (Homo sapiens, UniProt P33032); assay: Competitive inhibition assay using [I^125]-NDP-α-MSH, hMC5-R membranes; assay type: binding; parameters: expressed in transfected cells; conditions: 1 μM test compound; read-out: Inhibition at 1 μM (NDP-α-MSH) In Normal System, MC5-R
# Summary of the method: as §1
# MC4-R [6] = target: T4, MC4-R (Homo sapiens, UniProt P32245); assay: cAMP functional activity assay in HEK-293 cells, normal system; assay type: cell-based; parameters: expressed in transfected cells; host or cells: HEK-293; conditions: for intrinsic activity at MC4-R in a normal system: normal receptor density system, NDP-α-MSH = 1.0; for functional status at MC4-R in cAMP assay: normal system, 1 μM concentration where stated
# MC3-R [7] = target: T2, MC3-R; assay: cAMP functional activity assay in HEK-293 cells; assay type: cell-based; parameters: expressed in transfected cells; host or cells: HEK-293; conditions: 1 μM concentration where stated
# Procedure: as §2, §3
# MC5-R [8] = target: T3, MC5-R; assay: cAMP functional activity assay in HEK-293 cells; assay type: cell-based; parameters: expressed in transfected cells; host or cells: HEK-293; conditions: 1 μM concentration where stated
# Procedure: as §2, §3
# MC4-R [9] = target: T4, MC4-R; assay: Competitive inhibition assay using [I^125]-NDP-α-MSH, hMC4-R membranes; assay type: binding; parameters: host or cells: TREx-293 (HEK-293 stably expressing Tet repressor); conditions: 1 μM test compound; read-out: Inhibition at 1 μM (NDP-α-MSH) In Normal System, MC4-R
# Summary of the method: as §1
# MC4-R [10] = target: T4, MC4-R; assay: cAMP agonist stimulation, low receptor density system (0.1 ng/mL doxycycline); conditions: 0.1 ng/mL doxycycline, low receptor density hMC4-R system; NDP-α-MSH maximal cAMP = 1.0
# MC4-R [11] = target: T4, MC4-R; assay: cAMP agonist stimulation, high receptor density system (10 ng/mL doxycycline); conditions: for Efficacy/Intrinsic Activity: 10 ng/mL doxycycline, high receptor density hMC4-R system, NDP-α-MSH maximal cAMP = 1.0
# T4 sequence (P32245 whole entry): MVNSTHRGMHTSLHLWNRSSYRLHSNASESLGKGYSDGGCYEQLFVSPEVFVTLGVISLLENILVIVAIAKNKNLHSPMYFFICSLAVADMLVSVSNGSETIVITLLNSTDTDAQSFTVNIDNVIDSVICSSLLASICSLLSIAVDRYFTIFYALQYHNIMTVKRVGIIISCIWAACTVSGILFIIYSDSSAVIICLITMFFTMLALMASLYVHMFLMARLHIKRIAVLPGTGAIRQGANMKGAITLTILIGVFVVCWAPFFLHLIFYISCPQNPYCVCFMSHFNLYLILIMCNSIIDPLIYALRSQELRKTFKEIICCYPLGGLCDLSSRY
# T2 sequence (P41968 whole entry): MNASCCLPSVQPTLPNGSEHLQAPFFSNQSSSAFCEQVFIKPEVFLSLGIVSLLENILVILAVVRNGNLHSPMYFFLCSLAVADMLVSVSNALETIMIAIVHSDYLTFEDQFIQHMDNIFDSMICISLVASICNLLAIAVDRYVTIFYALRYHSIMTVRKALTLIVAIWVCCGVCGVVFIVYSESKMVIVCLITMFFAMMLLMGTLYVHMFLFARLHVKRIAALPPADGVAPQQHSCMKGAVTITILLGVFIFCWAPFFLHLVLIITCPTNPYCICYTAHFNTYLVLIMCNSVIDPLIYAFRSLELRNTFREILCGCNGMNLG
# T1 sequence (Q01727 whole entry): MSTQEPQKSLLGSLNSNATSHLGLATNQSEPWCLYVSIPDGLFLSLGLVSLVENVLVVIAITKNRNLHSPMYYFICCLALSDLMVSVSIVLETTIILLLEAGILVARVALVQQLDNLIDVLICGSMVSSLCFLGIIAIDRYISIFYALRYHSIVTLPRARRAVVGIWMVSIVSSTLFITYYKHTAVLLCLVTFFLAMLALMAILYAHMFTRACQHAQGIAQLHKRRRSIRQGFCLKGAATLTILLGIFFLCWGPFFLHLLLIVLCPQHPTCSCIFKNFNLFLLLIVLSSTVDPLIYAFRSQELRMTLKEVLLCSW
# T3 sequence (P33032 whole entry): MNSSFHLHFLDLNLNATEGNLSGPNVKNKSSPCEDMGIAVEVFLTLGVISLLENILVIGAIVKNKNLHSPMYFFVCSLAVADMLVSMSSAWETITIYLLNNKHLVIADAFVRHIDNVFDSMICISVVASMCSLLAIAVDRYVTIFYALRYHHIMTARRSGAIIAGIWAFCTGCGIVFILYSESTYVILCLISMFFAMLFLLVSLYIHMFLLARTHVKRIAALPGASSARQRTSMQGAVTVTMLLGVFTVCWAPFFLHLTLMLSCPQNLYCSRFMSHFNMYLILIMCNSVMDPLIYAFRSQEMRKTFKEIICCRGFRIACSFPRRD
Compound,inhibition at 1 µM (MC1-R [1]) [%],Ki (MC1-R [1]) [nM],functional status at MC1-R in cAMP assay (MC1-R [2]),Penile Erection IV ([3]; IV),"penile erection response ([3]; IV, 0.3 to 30 μg/kg)",inhibition at 1 µM (MC3-R [4]) [%],inhibition at 1 µM (MC5-R [5]) [%],intrinsic activity at MC4-R in a normal system (MC4-R [6]),functional status at MC4-R in cAMP assay (MC4-R [6]),functional status at MC3-R in cAMP assay (MC3-R [7]),functional status at MC5-R in cAMP assay (MC5-R [8]),inhibition at 1 µM (MC4-R [9]) [%],Efficacy/Intrinsic Activity (MC4-R [10]),EC50 (MC4-R [11]) [nM],Efficacy/Intrinsic Activity (MC4-R [11]),Penile Erection ICV ([3]; ICV),"penile erection response ([3]; ICV, 0.01 to 10 nmol)","penile erection response ([3]; ICV, 0.01 to 10 nM)"
"Cc1ccc(CCN2C[C@H](CCCNC(=N)N)N(C(=O)[C@H](N)Cc3ccc4ccccc4c3)C[C@H]2C)cc1 [Example 5, N-{3-[1-(2(R)-Amino-3-naphthalen-2-yl-propionyl)-5(R)-methyl-4-(2-p-tolyl-ethyl)-piperazin-2(S)-yl]-propyl}-guanidine]",32,135,partial agonist (intrinsic activity between 0.1 (10%) and 0.7 (70%) is classified as a partial agonist),No,no penile erection response,61,65,0.6,partial agonist (intrinsic activity between 0.1 (10%) and 0.7 (70%) is classified as a partial agonist),no intrinsic activity (intrinsic activity below 0.1 (10%) is classified as inactive or having no intrinsic activity),partial agonist (intrinsic activity between 0.1 (10%) and 0.7 (70%) is classified as a partial agonist),95,None,117,0.46,–,–,–
"C[C@@H]1CN(C(=O)[C@H](N)Cc2ccc3ccccc3c2)[C@@H](CCCNC(=N)N)CN1C(=O)Cc1c[nH]c2ccccc12 [Example 6, N-{3-[1-(2(R)-Amino-3-naphthalen-2-yl-propionyl)-4-(2-1H-indol-3-yl-acetyl)-5(R)-methyl-piperazin-2(S)-yl]-propyl}-guanidine]",20,315,no intrinsic activity (intrinsic activity below 0.1 (10%) is classified as inactive or having no intrinsic activity),No,no penile erection response,35,6,0.2,partial agonist (intrinsic activity between 0.1 (10%) and 0.7 (70%) is classified as a partial agonist),no intrinsic activity (intrinsic activity below 0.1 (10%) is classified as inactive or having no intrinsic activity),partial agonist (intrinsic activity between 0.1 (10%) and 0.7 (70%) is classified as a partial agonist),90,None,39,0.43,–,–,–
C[C@@H]1CN(C(=O)[C@H](N)Cc2ccc3ccccc3c2)[C@@H](CCCNC(=N)N)CN1C(=O)CCCc1c[nH]c2ccccc12 [Example 7],0,1200,no intrinsic activity (intrinsic activity below 0.1 (10%) is classified as inactive or having no intrinsic activity),–,–,32,62,0.4,partial agonist (intrinsic activity between 0.1 (10%) and 0.7 (70%) is classified as a partial agonist),no intrinsic activity (intrinsic activity below 0.1 (10%) is classified as inactive or having no intrinsic activity),no intrinsic activity (intrinsic activity below 0.1 (10%) is classified as inactive or having no intrinsic activity),88,None,72,0.38,No,no penile erection response,–
"Cc1[nH]c2ccccc2c1CCN1C[C@H](CCCNC(=N)N)N(C(=O)[C@H](N)Cc2ccc3ccccc3c2)C[C@H]1C [Example 8, N-(3-{1-(2(R)-Amino-3-naphthalen-2-yl-propionyl)-5(R)-methyl-4-[2-(2-methyl-1H-indol-3-yl)-ethyl]-piperazin-2(S)-yl}-propyl)-guanidine]",73,148,partial agonist (intrinsic activity between 0.1 (10%) and 0.7 (70%) is classified as a partial agonist),–,–,57,76,0.9,agonist (intrinsic activity of 0.7 (70%) or higher is classified as an agonist),no intrinsic activity (intrinsic activity below 0.1 (10%) is classified as inactive or having no intrinsic activity),agonist (intrinsic activity of 0.7 (70%) or higher is classified as an agonist),95,None,–,None,No,–,no penile erection response

# — patent publication US20090081197A1 (Palatin Technologies, Inc., priority 2007, published 2009)
